Laboratory results: patent publication US11352371B2, “Thienopyrimidine derivatives as ACC inhibitors and uses thereof” (Gilead Sciences, Inc., priority 2019, dated 2022)

Tested on: HepG2 cells
Assay: In vitro De Novo Lipogenesis (DNL) assay, 13C-acetate incorporation into palmitic acid
Assay type: cell-based
Conditions: Homo sapiens, 1 hour preincubation, 24 hours with 10 mM 13C-labeled acetate
Experimental: De Novo Lipogenesis (DNL) was measured in vitro in HepG2 cells by quantifying the incorporation of ^13C-labeled acetate into palmitic acid.
HepG2 cells were plated in growth medium (DMEM (Corning cat #15-018-CM) supplemented with 10% FBS (HyClone cat #SH30071-03), and 1× penicillin, streptomycin, glutamine (Corning cat #30-009-CI)) at 10,000 cells/well in a 384-well cell culture-treated plate (Greiner cat #781091). The cells were then incubated overnight at 37° C., 5% CO2. The next day, the cells were washed twice with sterile DPBS (Corning cat #21-031-CM) and the culture medium was changed to fresh growth medium. The compounds of interest were dosed to cells, followed by a 1 hour incubation at 37° C., 5% CO2. ^13C-labeled acetate (Sigma-Aldrich cat #279315-1G) was added to the culture medium at a concentration of 10 mM and the cells were incubated for 24 hours at 37° C., 5% CO2.
In order to analyze the lipid content of the HepG2 cells, the culture medium was removed and the cells were lysed by adding 30 μL of 0.1 M NaOH. After 5 minutes of incubation at room temperature, 15 μL of cell lysate was transferred to a 384-well deep-well plate (Sigma-Aldrich cat #BR701355-48EA) containing 15 μL of 7.3% KOH in ethanol and mixed. This plate was sealed and incubated at 70° C. for 4 hours to hydrolyze the lipids to free fatty acids. 100 μL of acetonitrile was then added and the plate was spun at 3,700 g for 20 minutes to separate the organic and aqueous phases. 50 μL from the top (organic) phase was transferred to a new 384-well plate (NUNC cat #264573) and the samples were analyzed by mass spectrometry using a RapidFire coupled to a QTOF mass spectrometer. The sum of the area under curve (AUC) for palmitate containing 3 to 7 ^13C was normalized with the AUC of oleate and plotted against compound concentration to determine the potency of ACC inhibitors. […]

Row | EC50 [nM] | SMILES
1 | 29.7 | Cc1c(-n2nccn2)sc2c1c(=O)n(C(C)(C)C(=O)NS(=O)(=O)C1(C)CC1)c(=O)n2C[C@H](O[C@H]1C[C@H]2CC[C@@H](C1)O2)c1ccccc1OC(F)F [Example 21, 2-(1-((R)-2-(((1R,3r,5S)-8-oxabicyclo[3.2.1]octan-3-yl)oxy)-2-(2-(difluoromethoxy)phenyl)ethyl)-5-methyl-2,4-dioxo-6-(2H-1,2,3-triazol-2-yl)-1,4-dihydrothieno[2,3-d]pyrimidin-3(2H)-yl)-2-methyl-N-((1-methylcyclopropyl)sulfonyl)propanamide]
2 | 916 | Cc1c(-n2nccn2)sc2c1c(=O)n(C1(C(=O)NS(=O)(=O)C(C)(C)C)CC1)c(=O)n2C[C@H](O[C@H]1C[C@H]2CC[C@@H](C1)O2)c1ccccc1OC(F)F [Example 22, 1-(1-((R)-2-(((1R,3r,5S)-8-oxabicyclo[3.2.1]octan-3-yl)oxy)-2-(2-(difluoromethoxy)phenyl)ethyl)-5-methyl-2,4-dioxo-6-(2H-1,2,3-triazol-2-yl)-1,4-dihydrothieno[2,3-d]pyrimidin-3(2H)-yl)-N-(tert-butylsulfonyl)cyclopropane-1-carboxamide]
3 | 268 | Cc1c(-n2nccn2)sc2c1c(=O)n(C1(C(=O)NS(=O)(=O)C3(C)CC3)CC1)c(=O)n2C[C@H](O[C@H]1C[C@H]2CC[C@@H](C1)O2)c1ccccc1OC(F)F [Example 23, 1-(1-((R)-2-(((1R,3r,5S)-8-oxabicyclo[3.2.1]octan-3-yl)oxy)-2-(2-(difluoromethoxy)phenyl)ethyl)-5-methyl-2,4-dioxo-6-(2H-1,2,3-triazol-2-yl)-1,4-dihydrothieno[2,3-d]pyrimidin-3(2H)-yl)-N-((1-methylcyclopropyl)sulfonyl)cyclopropane-1-carboxamide]
4 | 24.3 | COCCOc1ccccc1[C@H](Cn1c(=O)n(C(C)(C)C(=O)NS(=O)(=O)C2(C)CC2)c(=O)c2c(C)c(-n3nccn3)sc21)O[C@@H]1C[C@H]2CC[C@@H](C1)O2 [Example 24, 2-(1-((R)-2-(((1R,3s,5S)-8-oxabicyclo[3.2.1]octan-3-yl)oxy)-2-(2-(2-methoxyethoxy)phenyl)ethyl)-5-methyl-2,4-dioxo-6-(2H-1,2,3-triazol-2-yl)-1,4-dihydrothieno[2,3-d]pyrimidin-3(2H)-yl)-2-methyl-N-((1-methylcyclopropyl)sulfonyl)propanamide]
5 | 1 | COc1ccccc1[C@H](Cn1c(=O)n(C2(C(=O)NS(=O)(=O)C3(C)CC3)CC2)c(=O)c2c(C)c(-n3nccn3)sc21)O[C@@H]1C[C@H]2CC[C@@H](C1)O2 [Example 25, 1-(1-((R)-2-(((1R,3s,5S)-8-oxabicyclo[3.2.1]octan-3-yl)oxy)-2-(2-methoxyphenyl)ethyl)-5-methyl-2,4-dioxo-6-(2H-1,2,3-triazol-2-yl)-1,4-dihydrothieno[2,3-d]pyrimidin-3(2H)-yl)-N-((1-methylcyclopropyl)sulfonyl)cyclopropane-1-carboxamide]
6 | 24.6 | Cc1c(-n2nccn2)sc2c1c(=O)n(C1(C(=O)NS(=O)(=O)C3(C)CC3)CC1)c(=O)n2C[C@H](O[C@@H]1C[C@H]2CC[C@@H](C1)O2)c1ccccc1OC(F)F [Example 26, 1-(1-((R)-2-(((1R,3s,5S)-8-oxabicyclo[3.2.1]octan-3-yl)oxy)-2-(2-(difluoromethoxy)phenyl)ethyl)-5-methyl-2,4-dioxo-6-(2H-1,2,3-triazol-2-yl)-1,4-dihydrothieno[2,3-d]pyrimidin-3(2H)-yl)-N-((1-methylcyclopropyl)sulfonyl)cyclopropane-1-carboxamide]
7 | 363 | Cc1c(-n2nccn2)sc2c1c(=O)n(C1(C(=O)NS(=O)(=O)C(C)(C)C)CC1)c(=O)n2C[C@H](O[C@@H]1C[C@H]2CC[C@@H](C1)O2)c1ccccc1OC(F)F [Example 27, 1-(1-((R)-2-(((1R,3s,5S)-8-oxabicyclo[3.2.1]octan-3-yl)oxy)-2-(2-(difluoromethoxy)phenyl)ethyl)-5-methyl-2,4-dioxo-6-(2H-1,2,3-triazol-2-yl)-1,4-dihydrothieno[2,3-d]pyrimidin-3(2H)-yl)-N-(tert-butylsulfonyl)cyclopropane-1-carboxamide]
8 | 0.9 | Cc1c(-n2nccn2)sc2c1c(=O)n(C1(C(=O)NS(=O)(=O)C3(C)CC3)CC1)c(=O)n2C[C@H](O[C@@H]1C[C@H]2CC[C@@H](C1)O2)c1cc(F)ccc1OC(F)F [Example 28, 1-(1-((R)-2-(((1R,3s,5S)-8-oxabicyclo[3.2.1]octan-3-yl)oxy)-2-(2-(difluoromethoxy)-5-fluorophenyl)ethyl)-5-methyl-2,4-dioxo-6-(2H-1,2,3-triazol-2-yl)-1,4-dihydrothieno[2,3-d]pyrimidin-3(2H)-yl)-N-((1-methylcyclopropyl)sulfonyl)cyclopropane-1-carboxamide]
9 | 10.2 | Cc1c(-n2nccn2)sc2c1c(=O)n(C1(C(=O)NS(=O)(=O)C(C)(C)C)CC1)c(=O)n2C[C@H](O[C@@H]1C[C@H]2CC[C@@H](C1)O2)c1cc(F)ccc1OC(F)F [Example 29, 1-(1-((R)-2-(((1R,3s,5S)-8-oxabicyclo[3.2.1]octan-3-yl)oxy)-2-(2-(difluoromethoxy)-5-fluorophenyl)ethyl)-5-methyl-2,4-dioxo-6-(2H-1,2,3-triazol-2-yl)-1,4-dihydrothieno[2,3-d]pyrimidin-3(2H)-yl)-N-(tert-butylsulfonyl)cyclopropane-1-carboxamide]
10 | 33.1 | COCCOc1ccccc1[C@H](Cn1c(=O)n(C2(C(=O)NS(=O)(=O)C3(C)CC3)CC2)c(=O)c2c(C)c(-n3nccn3)sc21)O[C@@H]1C[C@H]2CC[C@@H](C1)O2 [Example 30, 1-(1-((R)-2-(((1R,3s,5S)-8-oxabicyclo[3.2.1]octan-3-yl)oxy)-2-(2-(2-methoxyethoxy)phenyl)ethyl)-5-methyl-2,4-dioxo-6-(2H-1,2,3-triazol-2-yl)-1,4-dihydrothieno[2,3-d]pyrimidin-3(2H)-yl)-N-((1-methylcyclopropyl)sulfonyl)cyclopropane-1-carboxamide]
11 | 1.4 | COc1ccc(F)cc1[C@H](Cn1c(=O)n(C(C)(C)C(=O)NS(=O)(=O)C2(C)CC2)c(=O)c2c(C)c(-c3ncsn3)sc21)O[C@@H]1C[C@H]2CC[C@@H](C1)O2 [Example 31, 2-(1-((R)-2-(((1R,3s,5S)-8-oxabicyclo[3.2.1]octan-3-yl)oxy)-2-(5-fluoro-2-methoxyphenyl)ethyl)-5-methyl-2,4-dioxo-6-(1,2,4-thiadiazol-3-yl)-1,4-dihydrothieno[2,3-d]pyrimidin-3(2H)-yl)-2-methyl-N-((1-methylcyclopropyl)sulfonyl)propanamide]
12 | 9.9 | COc1ccccc1[C@H](Cn1c(=O)n(C(C)(C)C(=O)NS(=O)(=O)C2(C)CC2)c(=O)c2c(C)c(C#N)sc21)O[C@@H]1C[C@H]2CC[C@@H](C1)O2 [Example 32, 2-(1-((R)-2-(((1R,3s,5S)-8-oxabicyclo[3.2.1]octan-3-yl)oxy)-2-(2-methoxyphenyl)ethyl)-6-cyano-5-methyl-2,4-dioxo-1,4-dihydrothieno[2,3-d]pyrimidin-3(2H)-yl)-2-methyl-N-((1-methylcyclopropyl)sulfonyl)propanamide]
